Type in all cases: cell-based, human
In one experiment the test system is γ-secretase. The experiment can be described thus: γ-secretase activity blocked in DM1 myoblasts, NOTCH1 level. Conditions: pharmacological inhibition of γ-secretase.
The next experiment relates to DM1 myoblasts. The experiment can be described thus: Myogenic differentiation of treated DM1 myoblasts in differentiation media (myotubes, myogenin, MyoD). From the text: The above findings supported the possibility that a significant amount of SKELETROPHIN remained bound with the mutant DMPK transcripts within DM1 nuclei, which results in diminished SKELETROPHIN activity in DM1. The attenuated SKELETROPHIN activity then manifests with an increase in JAGGED2 activity, leading to chronic activation of Notch signaling in DM1. Based on these findings we hypothesize that the activated Notch attenuates the ability of DM1 myoblasts to progress toward myogenic lineage, while facilitating their proliferation. To more critically test this idea, DMPK transcripts were targeted in DM1 myoblasts using siRNA and JAGGED2 and NOTCH1 expression was measured, in addition to an assessment of the cells' myogenic properties. DMPK transcripts were targeted to minimize interactions of SKELETROPHIN with CUG RNA, thereby increasing SKELETROPHIN activity. […] JAGGED2 and NOTCH1 levels were measured in the DMPK-siRNA-treated cells. […] In contrast, DM1 myoblasts treated with control siRNA formed fewer and shorter myotubes as well as basal myogenin expression under identical conditions.
Whether attenuating Notch signaling improves the myogenic potential of DM1 myoblasts was assessed. To achieve this goal, JAGGED2 was targeted in DM1 myoblasts with siRNA.
(§1) The above results support the idea that diminished SKELETROPHIN activity results in elevated Notch signaling and activated Notch impairs the efficacy of myoblast differentiation in DM1. To obtain more direct evidence for this interpretation, SKELETROPHIN was overexpressed in DM1 myoblasts and the Notch activity and their myogenic properties were assessed.
The progression of myogenesis was quantified by monitoring the expression of myogenic markers, myogenin and MyoD. […] In contrast, untreated DM1 myoblasts show reduced myogenin and MyoD even after prolonged incubation in differentiation media.

A further experiment has as its system Notch signaling. The experiment can be described thus: SKELETROPHIN overexpression in DM1 myoblasts, Notch activity. How it is done:
as §1

For `CC(C)C[C@H](NC(=O)[C@H](Cc1ccccc1)C[C@@H](O)[C@H](Cc1ccccc1)NC(=O)OC(C)(C)C)C(=O)N[C@@H](Cc1ccccc1)C(N)=O` [L-685458], in the experiment on γ-secretase, the NOTCH1 level entry is “dose-dependent reduction”. For the same molecule, in the experiment on DM1 myoblasts, the MyoD expression entry was “increase”, the “formation of multinucleated myotubes” value is reported as “higher propensity to form multi-nucleated myotubes” and the myogenin expression entry is given as “increase”.

B1: SKELETROPHIN: E3 ubiquitin ligase for Jagged2, overexpressed in DM1 myoblasts (protein, listed as Homo sapiens)
chain: MRWKCRVCLDYDLCTQCYMHNKHELAHAFDRYETAHSRPVTLSPRQGLPRIPLRGIFQGAKVVRGPDWEWGSQDGGEGKPGRVVDIRGWDVETGRSVASVTWADGTTNVYRVGHKGKVDLKCVGEAAGGFYYKDHLPRLGKPAELQRRVSADSQPFQHGDKVKCLLDTDVLREMQEGHGGWNPRMAEFIGQTGTVHRITDRGDVRVQFNHETRWTFHPGALTKALGRVGKVVKVFGDGNLRVAVAGQRWTFSPSCLVAYRPEEDANLDVAERARENKSSLSVALDKLRAQKSDPEHPGRLVVEVALGNAARALDLLRRRPEQVDTKNQGRTALQVAAYLGQVELIRLLLQARAGVDLPDDEGNTALHYAALGNQPEATRVLLSAGCRADAINSTQSTALHVAVQRGFLEVVRALCERGCDVNLPDAHSDTPLHSAISAGTGASGIVEVLTEVPNIDVTATNSQGFTLLHHASLKGHALAVRKILARARQLVDAKKEDGFTALHLAALNNHREVAQILIREGRCDVNVRNRKLQSPLHLAVQQAHVGLVPLLVDAGCSVNAEDEEGDTALHVALQRHQLLPLVADGAGGDPGPLQLLSRLQASGLPGSAELTVGAAVACFLALEGADVSYTNHRGRSPLDLAAEGRVLKALQGCAQRFRERQAGGGAAPGPRQTLGTPNTVTNLHVGAAPGPEAAECLVCSELALLVLFSPCQHRTVCEECARRMKKCIRCQVVVSKKLRPDGSEVASAAPAPGPPRQLVEELQSRYRQMEERITCPICIDSHIRLVFQCGHGACAPCGSALSACPICRQPIRDRIQIFV
Consider B1, for which, in the experiment on DM1 myoblasts, the “formation of multinucleated myotubes” value was “a large number of these myoblasts differentiated” and the myogenin expression result is recorded as “pronounced myogenin expressions”. Besides, the NOTCH1 level result in the experiment with Notch signaling is listed as “significant reduction”. Further, in the experiment with Notch signaling (n=4, P=0.0031), the Notch signaling entry is “significant reduction”.

Source of the values: patent US8771965B2, “Methods and compositions involving nucleotide repeat disorders” (The Board of Regents of the University of Texas System, priority 2006, dated 2014).
